# Where two headings read alike, the source gives them in different places.
# Tested on: STAT3
# Experiment: STAT3-dependent luciferase reporter assay in MDA-MB-231-STAT3 stable cells
# Format: cell-based, human
# Conditions: 20 μM; for inhibition of luciferase expression compared to DMSO vehicle control: significant = p value less than 0.05; for activity at 20 µM: Homo sapiens
# Procedure: FIG. 12. Identification of active inS3-54 analogues. (A) Effects of inS3-54 analogues on STAT3-dependent luciferase expression. MDA-MB-231 cells with stable STAT3-dependent luciferase expression were treated with DMSO control, 20 μM inSTAT3-54 or its analogues (A1-A79), followed by measurement of luciferase activity. (*p<0.05; **p<0.01; ***p<0.001).
# MDA-MB-231-STAT3 stable cell line with high level of STAT3-dependent luciferase expression was exposed to candidate compounds at 20 μM in DMSO for 48 hours based on previous studies, and luciferase activity was measured using a luciferase assay kit (Promega, USA), following manufacturer's instructions. The final DMSO concentration in this and following assays was 0.1% (vol/vol).
# [1] = mean of experiments, relative to DMSO
SMILES,"Rel. luciferase activity (%) 1 (experiment 1, relative to DMSO) [%]","Rel. luciferase activity (%) 2 (experiment 2, relative to DMSO) [%]","Rel. luciferase activity (%) 3 (experiment 3, relative to DMSO) [%]",Rel. luciferase activity (%) Mean [1] [%],inhibition of luciferase expression compared to DMSO vehicle control,"activity at 20 µM (experiment 1, relative to DMSO, read-out: Rel. luciferase activity (%) 1) [%]","activity at 20 µM (experiment 2, relative to DMSO, read-out: Rel. luciferase activity (%) 2) [%]","activity at 20 µM (experiment 3, relative to DMSO, read-out: Rel. luciferase activity (%) 3) [%]","activity at 20 µM (mean of experiments, relative to DMSO, read-out: Rel. luciferase activity (%) Mean) [%]"
O=C1C(=Cc2ccc([N+](=O)[O-])cc2)C=C(c2ccccc2)N1c1cccc(Cl)c1 [Compound A38],66.5,119.9,88.8,91.8,,,,,
O=C1C(=Cc2ccc([N+](=O)[O-])cc2)C=C(c2ccccc2)N1c1ccccc1O [Compound A42],100.8,145.3,100.8,115.6,,,,,
COc1ccc(C=C2C=C(c3ccccc3)N(c3ccc(N(C)C)cc3)C2=O)cc1 [Compound A78],71.7,107.9,61.0,80.2,,,,,
Cc1ccc(N2C(=O)C(=Cc3ccc([N+](=O)[O-])cc3)C=C2c2ccccc2)cc1C [Compound A29],100.7,170.4,113.3,128.1,,,,,
O=C1C(=Cc2ccc([N+](=O)[O-])cc2)C=C(c2ccccc2)N1c1ccc(Cl)c(Cl)c1 [Compound A39],119.6,129.6,65.9,105.1,,,,,
O=C(O)c1cc(N2C(=O)C(=Cc3ccc([N+](=O)[O-])cc3)C=C2c2ccccc2)ccc1O [Compound A70],99.0,97.9,92.8,96.5,,,,,
O=C1C(=Cc2ccc(-c3ccc([N+](=O)[O-])cc3)o2)C=C(c2ccccc2)N1c1ccccc1 [Compound A62],71.1,111.3,52.2,78.2,,,,,
COC(=O)c1cccc(N2C(=O)C(=Cc3ccc(Cl)cc3)C=C2c2ccccc2)c1 [Compound A19],45.7,101.8,60.1,69.2,,,,,
O=C1C(=Cc2ccc([N+](=O)[O-])cc2)C=C(c2ccccc2)N1c1ccc2ccccc2c1 [Compound A46],156.2,147.8,64.9,122.9,,,,,
COc1cccc(N2C(=O)C(=Cc3ccc(-c4ccc([N+](=O)[O-])cc4)o3)C=C2c2ccccc2)c1 [Compound A12],34.2,105.8,55.4,65.1,,,,,
O=C1C(=Cc2ccc([N+](=O)[O-])cc2)C=C(c2ccccc2)N1c1ccccc1 [Compound A68],71.2,84.5,68.7,74.8,significantly inhibited,,,,
O=C1C(=Cc2ccc(-c3ccc([N+](=O)[O-])cc3)o2)C=C(c2ccccc2)N1Cc1ccccc1 [Compound A64],79.8,109.6,49.0,79.5,,,,,
COc1ccccc1N1C(=O)C(=Cc2ccc(Cl)cc2)C=C1c1ccccc1 [Compound A75],28.7,71.4,45.4,48.5,significantly inhibited,,,,
CCOC(=O)C1=C(C)N(c2ccc(OCC)cc2)C(=O)/C1=C\c1ccc([N+](=O)[O-])cc1 [Compound A79],,,,,significantly inhibited,10.2,44.8,55.6,36.9
O=C1C(=Cc2ccc(-c3ccc([N+](=O)[O-])cc3)o2)C=C(c2ccccc2)N1c1ccc(Cl)cc1 [Compound A6],110.9,112.7,71.0,98.2,,,,,
O=C1C(=Cc2ccc(Cl)cc2)C=C(c2ccccc2)N1c1ccc(-c2ccccc2)cc1 [Compound A20],63.2,85.1,63.8,70.7,significantly inhibited,,,,
O=C1C(=Cc2ccc(Cl)cc2)C=C(c2ccccc2)N1c1ccccc1 [Compound A15],98.4,99.9,60.1,86.1,,,,,

# Reference: patent US9382204B2, “Inhibitors targeting the DNA-binding domain of human STAT3 for treatment of metastatic cancers” (Indiana University Research and Technology Corporation, priority 2013, dated 2016)
